For data set [1] the following is noted: no test described; cited from earlier work.
Data set [2] in a line: Discoloration (photoreduction) of spandex yarns after exposure to indoor fluorescent light. Format: physicochemical. The settings on record: after 1 month under typical indoor (fluorescent) light; antimicrobial within spandex yarn. As for the experimental part:
The Example spandex yarns were also tested for discoloration (photoreduction) after exposure to typical indoor (fluorescent) light after 1 month of such storage. […] Thus, for this purpose AlphaSan®-type antimicrobials are most preferred. […] Thus, for anti-tack, discoloration, and resiliency within and on the target spandex yarns, the AlphaSan® antimicrobials are, again, most preferred. The discoloration results are as follows, again with a non-antimicrobial control for comparison: […]

As for `Oc1cc(Cl)ccc1Oc1ccc(Cl)cc1Cl` [triclosan], the water solubility result in data set [1] is on record as “highly water soluble”. Moreover, the “discoloration (photoreduction) performance, in words” value in data set [2] is given as “excellent colorations”.

(Values after patent US20020102893A1, “ANTI-TACK SPANDEX FIBERS CONTAINING ANTIMICROBIAL AGENTS THEREIN AND FABRICS MADE THEREFROM” (priority 2000, published 2002).)
